Data from ChEMBL document CHEMBL1131823, “Triterpene and diterpene inhibitors of pyruvate dehydrogenase kinase (PDK)” (Bioorg Med Chem Lett, 1999).

How the values were obtained:
[1] = target: Pyruvate dehydrogenase kinase (Homo sapiens, UniProt Q15119+Q15120+Q16654+Q15118); assay: In vitro inhibitory activity against pyruvate dehydrogenase kinase was determined; type: protein assay
Mus musculus [2] = assay: In vivo activity in a diabetic mouse at a dose of 100 umol/kg/day on day1 after 2 hr; type: functional
Homo sapiens = organism: Homo sapiens; assay: In vitro effective concentration in normal human dermal fibroblasts; Inactive; type: functional
Mus musculus [3] = assay: In vivo activity in a diabetic mouse at a dose of 100 umol/kg/day on day 3 after 2 hr; type: functional
Mus musculus [4] = assay: In vivo activity in a diabetic mouse at a dose of 100 umol/kg/day on day 3 after 4 hr; type: functional
Mus musculus [5] = assay: In vivo activity in a diabetic mouse at a dose of 100 umol/kg/day on day 3 after 6 hr; type: functional
Mus musculus [6] = assay: In vivo activity in a diabetic mouse at a dose of 100 umol/kg/day on day1 after 4 hr; type: functional
Mus musculus [7] = assay: In vivo activity in a diabetic mouse at a dose of 100 umol/kg/day on day1 after 6 hr; type: functional
Mus musculus [8] = assay: In vivo activity in a diabetic mouse at a dose of 300 umol/kg/day on day1 after 6 hr; type: functional
Mus musculus [9] = assay: In vivo activity in a diabetic mouse at a dose of 300 umol/kg/day on day1 after 2 hr; type: functional
Rattus norvegicus [10] = assay: Effect on blood glucose level after 0 hour of oral administration of compound at a dose of 300 umol/kg; type: functional
Mus musculus [11] = assay: In vivo activity in a diabetic mouse at a dose of 300 umol/kg/day on day 3 after 6 hr; type: functional
Mus musculus [12] = assay: In vivo activity in a diabetic mouse at a dose of 300 umol/kg/day on day 3 after 4 hr; type: functional
Rattus norvegicus [13] = assay: Effect on blood glucose level after 4 hours of oral administration of compound at a dose of 300 umol/kg; type: functional
Mus musculus [14] = assay: In vivo activity in a diabetic mouse at a dose of 30 umol/kg/day on day1 after 2 hr; type: functional
Rattus norvegicus [15] = assay: Effect on blood lactate level after 0 hour of oral administration of compound at a dose of 300 umol/kg; type: functional
Mus musculus [16] = assay: In vivo activity in a diabetic mouse at a dose of 30 umol/kg/day on day1 after 4 hr; type: functional
Rattus norvegicus [17] = assay: Effect on blood lactate level after 4 hours of oral administration of compound at a dose of 300 umol/kg; type: functional
Mus musculus [18] = assay: In vivo activity in a diabetic mouse at a dose of 300 umol/kg/day on day1 after 4 hr; type: functional
Rattus norvegicus [19] = assay: Effect on blood lactate level after 2 hours of oral administration of compound at a dose of 300 umol/kg; type: functional
Rattus norvegicus [20] = assay: Effect on blood glucose level after 2 hours of oral administration of compound at a dose of 300 umol/kg; type: functional
Mus musculus [21] = assay: In vivo activity in a diabetic mouse at a dose of 300 umol/kg/day on day 3 after 2 hr; type: functional
Mus musculus [22] = assay: In vivo activity in a diabetic mouse at a dose of 30 umol/kg/day on day1 after 6 hr; type: functional
Mus musculus [23] = assay: In vivo activity in a diabetic mouse at a dose of 30 umol/kg/day on day 3 after 4 hr; type: functional
[24] = In vitro effective concentration in normal human dermal fibroblasts; type: functional
Mus musculus [25] = assay: In vivo activity in a diabetic mouse at a dose of 30 umol/kg/day on day 3 after 2 hr; type: functional
Mus musculus [26] = assay: In vivo activity in a diabetic mouse at a dose of 30 umol/kg/day on day 3 after 6 hr; type: functional
Mus musculus [27] = assay: In vivo activity in a diabetic mouse at a dose of 200 umol/kg/day on day1 after 4 hr; type: functional
Mus musculus [28] = assay: In vivo activity in a diabetic mouse at a dose of 200 umol/kg/day on day1 after 6 hr; type: functional
Mus musculus [29] = assay: In vivo activity in a diabetic mouse at a dose of 200 umol/kg/day on day 3 after 2 hr; type: functional
Mus musculus [30] = assay: In vivo activity in a diabetic mouse at a dose of 200 umol/kg/day on day 3 after 6 hr; type: functional
Mus musculus [31] = assay: In vivo activity in a diabetic mouse at a dose of 200 umol/kg/day on day1 after 2 hr; type: functional
Mus musculus [32] = assay: In vivo activity in a diabetic mouse at a dose of 200 umol/kg/day on day 3 after 4 hr; type: functional
Mus musculus [33] = assay: In vivo activity in a diabetic mouse at a dose of 1000 umol/kg/day on day 3 after 2 hr; type: functional
Mus musculus [34] = assay: In vivo activity in a diabetic mouse at a dose of 1000 umol/kg/day on day1 after 4 hr; type: functional
Mus musculus [35] = assay: In vivo activity in a diabetic mouse at a dose of 1000 umol/kg/day on day 3 after 4 hr; type: functional
Mus musculus [36] = assay: In vivo activity in a diabetic mouse at a dose of 1000 umol/kg/day on day1 after 6 hr; type: functional
Mus musculus [37] = assay: In vivo activity in a diabetic mouse at a dose of 1000 umol/kg/day on day 3 after 6 hr; type: functional
Mus musculus [38] = assay: In vivo activity in a diabetic mouse at a dose of 1000 umol/kg/day on day1 after 2 hours; type: functional

Molecule C[C@]12CC[C@H]3[C@@H](CCC4=C/C(=N/O)CC[C@@H]43)[C@@H]1CC[C@@H]2O has an IC50 [1] of 5.4 µM.
C[C@]12CC/C(=N\O)C[C@@H]1CC[C@@H]1[C@@H]2CC[C@]2(C)[C@@H](O)CC[C@@H]12 gave an IC50 [1] of 51 µM.
In the case of CC(C)C1=CC2=CC[C@H]3[C@](C)(CO)CCC[C@]3(C)[C@H]2CC1, the Efficacy (Mus musculus [2]) is reported as 7%, the EC50 (Homo sapiens) is reported as “Not Active” and the Efficacy (Mus musculus [3]) is reported as 7%. The Efficacy (Mus musculus [4]) was 10%, the Efficacy (Mus musculus [5]) was 24% and the Efficacy (Mus musculus [6]) was -8%. For the same molecule, the Efficacy (Mus musculus [7]) was 19% and the IC50 [1] was ~ 10 uM.
With C[C@]12CC[C@H]3[C@@H](CCC4=C/C(=N/CC(=O)O)CC[C@@H]43)[C@@H]1CC[C@@H]2O the IC50 [1] was 56 µM.
Work on C#C[C@]1(O)CC[C@H]2[C@@H]3CCC4=C/C(=N/O)CC[C@@H]4[C@H]3CC[C@@]21C yielded an IC50 [1] of 5.8 µM.
C=C=C[C@]1(O)CC[C@H]2[C@@H]3CCC4=C/C(=N/O)CC[C@@H]4[C@H]3CC[C@@]21C gave an Efficacy (Mus musculus [2]) of 3%, an Efficacy (Mus musculus [8]) of 51% and an Efficacy (Mus musculus [9]) of -2%. The EC50 (Homo sapiens) was “Not Active”, the Efficacy (Mus musculus [3]) was 73% and the Blood glucose (Rattus norvegicus [10]) was 49.5 mg/dL. For the same molecule, the Efficacy (Mus musculus [4]) was 70%, the Efficacy (Mus musculus [5]) was 47% and the Efficacy (Mus musculus [11]) was 75%. For the same molecule, the Efficacy (Mus musculus [12]) was 83%, the Blood glucose (Rattus norvegicus [13]) was 49.3 mg/dL and the Efficacy (Mus musculus [14]) was -6%. For the same molecule, the Blood lactate (Rattus norvegicus [15]) was 1.01 mM, the Efficacy (Mus musculus [16]) was -3% and the Blood lactate (Rattus norvegicus [17]) was 0.79 mM. The Efficacy (Mus musculus [18]) was 19%, the Blood lactate (Rattus norvegicus [19]) was 0.8 mM and the Efficacy (Mus musculus [6]) was 4%. For the same molecule, the Blood glucose (Rattus norvegicus [20]) was 49.1 mg/dL, the Efficacy (Mus musculus [21]) was 92% and the Efficacy (Mus musculus [22]) was 2%. It also gave an Efficacy (Mus musculus [7]) of 26%, an Efficacy (Mus musculus [23]) of 43% and an IC50 [1] of 0.84 µM. It also gave an EC50 [24] of 1.7 µM, an Efficacy (Mus musculus [25]) of 38% and an Efficacy (Mus musculus [26]) of -6%.
In the case of CC(C)c1ccc2c(c1)CC[C@H]1[C@](C)(CN)CCC[C@]21C, the Efficacy (Mus musculus [2]) is reported as 30%, the Efficacy (Mus musculus [8]) is reported as 65% and the Efficacy (Mus musculus [9]) is reported as 68%. For the same molecule, the EC50 (Homo sapiens) was “Not Active”, the Efficacy (Mus musculus [3]) was 26% and the Efficacy (Mus musculus [4]) was 36%. It also gave an Efficacy (Mus musculus [5]) of 47%, an Efficacy (Mus musculus [11]) of 90% and an Efficacy (Mus musculus [12]) of 86%. For the same molecule, the Efficacy (Mus musculus [14]) was 18%, the Efficacy (Mus musculus [16]) was -1% and the Efficacy (Mus musculus [18]) was 69%. The Efficacy (Mus musculus [6]) was 28%, the Efficacy (Mus musculus [21]) was 85% and the Efficacy (Mus musculus [22]) was 11%. For the same molecule, the Efficacy (Mus musculus [7]) was 22%, the Efficacy (Mus musculus [23]) was 2% and the IC50 [1] was 9.5 µM. For the same molecule, the Efficacy (Mus musculus [25]) was -4% and the Efficacy (Mus musculus [26]) was 19%.
For CC(C)C1=CC2=CC[C@@H]3[C@](C)(CCC[C@@]3(C)C(N)=O)[C@H]2CC1, the Efficacy (Mus musculus [27]) was -2%, the EC50 (Homo sapiens) was “Not Active” and the Efficacy (Mus musculus [28]) was 16%. The Efficacy (Mus musculus [29]) was 13%, the Efficacy (Mus musculus [30]) was 16% and the Efficacy (Mus musculus [31]) was 4%. For the same molecule, the Efficacy (Mus musculus [32]) was 9% and the IC50 [1] was 6.7 µM.
C[C@]12CC/C(=N\O)C[C@H]1CC[C@@H]1[C@@H]2CC[C@]2(C)[C@@H](O)CC[C@@H]12 gave an IC50 [1] of 36 µM.
In the case of CC(C)C1=CC2=CC[C@@H]3[C@](C)(CCC[C@@]3(C)C(=O)O)[C@H]2CC1 [ABIETIC ACID], the Efficacy (Mus musculus [27]) is reported as 25%, the EC50 (Homo sapiens) is reported as “Not Active” and the Efficacy (Mus musculus [28]) is reported as 42%. It also gave an Efficacy (Mus musculus [29]) of 24%, an Efficacy (Mus musculus [30]) of 29% and an Efficacy (Mus musculus [31]) of 45%. It also gave an Efficacy (Mus musculus [32]) of 22% and an IC50 [1] of 20 µM.
For O=C(O)C(Cl)Cl [DICHLOROACETIC ACID], the Efficacy (Mus musculus [33]) was 52%, the Efficacy (Mus musculus [34]) was 39% and the Efficacy (Mus musculus [35]) was 50%. It also gave an Efficacy (Mus musculus [36]) of 29%, an Efficacy (Mus musculus [37]) of 56% and an Efficacy (Mus musculus [38]) of 59%. It also gave an EC50 [24] of 100 µM.
In the case of C[C@]12CC[C@H]3[C@@H](CCC4=CC(=O)CC[C@@H]43)[C@@H]1CC[C@@H]2O [NANDROLONE], the IC50 [1] is reported as 120 µM.
